12 compounds from ChEMBL document CHEMBL5532637, “Antimicrobial activity of natural and semi-synthetic carbazole alkaloids” (Eur J Med Chem, 2023) can be followed below.

Values after ≈ are worked out from the molar mass of the structure shown.

Assay [1] has as its system Cryptococcus neoformans. In words: Antifungal activity against Cryptococcus neoformans assessed as inhibition of fungal growth by serial dilution method. It counts as functional.
Assay [2] concerns Nannizzia gypsea. The assay is described as follows: Antifungal activity against Microsporum gypseum assessed as inhibition of fungal growth by serial dilution method. It counts as functional.
Assay [3] has as its system Aspergillus fumigatus. In words: Antifungal activity against Aspergillus fumigatus assessed as inhibition of fungal growth by serial dilution method. It counts as functional.
The test system of assay [4] is Caulobacter vibrioides. In words: Antibacterial activity against Caulobacter crescentus assessed as inhibition of bacterial growth incubated for 24 hrs. Format: functional.
Assay [5] deals with Staphylococcus aureus. The assay is described as follows: Antibacterial activity against Staphylococcus aureus assessed as inhibition of bacterial growth incubated for 24 hrs. It counts as functional.
Assay [6] has as its system Escherichia coli. In words: Antibacterial activity against wild type Escherichia coli assessed as inhibition of bacterial growth incubated for 20 hrs by broth microdilution method. Format: functional. A general note: In broth dilution the organism is exposed to a series of concentrations in liquid medium.
Assay [7] relates to Klebsiella pneumoniae. In words: Antibacterial activity against Klebsiella pneumoniae assessed as inhibition of bacterial growth incubated for 20 hrs by broth microdilution method. Format: functional.
In assay [8] the test system is Escherichia coli. The assay is described as follows: Antibacterial activity against Escherichia coli expressing blaNDM-1 gene assessed as inhibition of bacterial growth incubated for 20 hrs by broth microdilution method. Format: functional.
For assay [9], the system named is Escherichia coli. The assay is described as follows: Antibacterial activity against Escherichia coli expressing recombinant blaNDM-1 gene assessed as inhibition of bacterial growth incubated for 20 hrs by broth microdilution method. Format: functional.
Assay [10] has as its system Staphylococcus aureus. The assay is described as follows: Antibacterial activity against methicillin-resistant Staphylococcus aureus assessed as inhibition of bacterial growth incubated for 20 hrs by broth microdilution method. It counts as functional.
Assay [11] deals with Staphylococcus aureus. In words: Antibacterial activity against wild type Staphylococcus aureus assessed as inhibition of bacterial growth incubated for 20 hrs by broth microdilution method. It counts as functional.
Assay [12] relates to Bacillus subtilis. In words: Antibacterial activity against Bacillus subtilis assessed as inhibition of bacterial growth incubated for 20 hrs by broth microdilution method. It counts as functional.
The subject of assay [13] is Moraxella catarrhalis. In words: Antibacterial activity against Moraxella catarrhalis ATCC 43617 assessed as inhibition of bacterial growth by microdilution assay. It counts as functional.
Assay [14] deals with Staphylococcus aureus. The assay is described as follows: Antibacterial activity against Staphylococcus aureus ATCC 29213 assessed as inhibition of bacterial growth by microdilution assay. It counts as functional.
In assay [15] the test system is Enterococcus faecium. In words: Antibacterial activity against Enterococcus faecium BM 4147 assessed as inhibition of bacterial growth by microdilution assay. Format: functional.
In assay [16] the test system is Staphylococcus simulans. The assay is described as follows: Antibacterial activity against Staphylococcus simulans 22 assessed as inhibition of bacterial growth by microdilution assay. Format: functional.
For assay [17], the system named is Bacillus subtilis. The assay is described as follows: Antibacterial activity against Bacillus subtilis 168 assessed as inhibition of bacterial growth by microdilution assay. Format: functional.
The subject of assay [18] is Bacillus mycoides. In words: Antimicrobial activity against Bacillus mycoides assessed as inhibition of microbial growth incubated for 18 to 20 hrs by broth microdilution method. It counts as functional. To be noted: time 18-20 hrs.
Assay [19] relates to Mycolicibacterium smegmatis. The assay is described as follows: Antimicrobial activity against Mycobacterium smegmatis assessed as inhibition of microbial growth incubated for 18 to 20 hrs by broth microdilution method. Format: functional. To be noted: time 18-20 hrs.
In assay [20] the test system is Staphylococcus aureus. The assay is described as follows: Antimicrobial activity against methicillin-resistant Staphylococcus aureus assessed as inhibition of microbial growth incubated for 18 to 20 hrs by broth microdilution method. It counts as functional. To be noted: time 18-20 hrs.
The subject of assay [21] is Candida albicans. In words: Antimicrobial activity against Candida albicans assessed as inhibition of microbial growth incubated for 18 to 20 hrs by broth microdilution method. Format: functional. The note with it: time 18-20 hrs.
Assay [22] concerns Pseudomonas aeruginosa. In words: Antibacterial activity against Pseudomonas aeruginosa assessed as zone of inhibition incubated for 24 hrs by disk diffusion method. Format: functional.
The test system of assay [23] is Staphylococcus aureus. In words: Antibacterial activity against Staphylococcus aureus assessed as zone of inhibition incubated for 24 hrs by disk diffusion method. It counts as functional.
Assay [24] is described as follows: Antimicrobial activity against Pseudomonas syringae pv. actinidiae by turbidimetric analysis. Format: functional.
The subject of assay [25] is Xanthomonas oryzae. The assay is described as follows: Antimicrobial activity against Xanthomonas oryzae by turbidimetric analysis. It counts as functional, organism-based.
The subject of assay [26] is Xanthomonas axonopodis. The assay is described as follows: Antimicrobial activity against Xanthomonas axonopodis by turbidimetric analysis. It counts as functional, organism-based.
For assay [27], the system named is Staphylococcus aureus. In words: Antibacterial activity against methicillin-resistant Staphylococcus aureus assessed as inhibition of bacterial growth incubated for 24 hrs by two-fold serial dilution assay. It counts as functional.
Assay [28] relates to Staphylococcus aureus. The assay is described as follows: Antibacterial activity against methicillin-sensitive Staphylococcus aureus assessed as inhibition of bacterial growth incubated for 24 hrs by two-fold serial dilution assay. It counts as functional.
Assay [29] relates to Candida albicans. The assay is described as follows: Antifungal activity against Candida albicans SC5314 assessed as inhibition of fungal growth incubated for 24 hrs by microtiter plate reader assay. It counts as functional.
Assay [30] has as its system Bacillus subtilis. In words: Antibacterial activity against Bacillus subtilis assessed as inhibition of bacterial growth. Format: functional.
In assay [31] the test system is Staphylococcus aureus. In words: Antibacterial activity against Staphylococcus aureus assessed as inhibition of bacterial growth. Format: functional, organism-based.
Assay [32] relates to Staphylococcus aureus. In words: Antimicrobial activity against Staphylococcus aureus assessed as inhibition of microbial growth incubated for 18 hrs by agar diffusion method. Format: functional. For orientation: A growth-free zone around the sample is the usual read-out of agar diffusion tests.
The test system of assay [33] is Staphylococcus aureus. In words: Antimicrobial activity against methicillin-resistant Staphylococcus aureus assessed as inhibition of microbial growth incubated for 18 hrs by agar diffusion method. It counts as functional.

As to `Cc1ccc2c(c1)c1c(n2CCCNCc2ccccc2)CCCC1`, the MIC80 (as a rule, an inhibitory concentration at the 80% level, which refers to growth in some studies and to a panel of isolates in others) in assay [1] came out at 1 µg/mL (≈ 3.01 µM); in assay [2] it was 0.016 µg/mL (≈ 0.0481 µM); in [3], 32 µg/mL (≈ 96.2 µM).

As for `OCC(CO)(CO)NCC(O)Cn1c2ccc(Cl)cc2c2cc(Cl)ccc21` (stereo unspecified), the MIC (in general, the least concentration at which growth counts as inhibited) in assay [4] amounted to 15 µM (≈ 6.2 µg/mL); in assay [5] it was 50 µM (≈ 20.7 µg/mL).

Turning to `Fc1cc(F)c2c(c1)[nH]c1ccc(F)cc12`, the MIC in assay [6] was 1.5 µg/mL (≈ 6.78 µM); in [7], 1.5 µg/mL (≈ 6.78 µM); in assay [8], 1.5 µg/mL (≈ 6.78 µM); in assay [9], 1.5 µg/mL; in assay [10], 1.5 µg/mL (≈ 6.78 µM); in assay [11], 1.5 µg/mL (≈ 6.78 µM). The minimum inhibitory concentration (MIC) in [12] is 1.5 µg/mL (≈ 6.78 µM).

With `c1ccc(CCNC2CCCc3c2[nH]c2ccc(C4CCCCC4)cc32)cc1` (stereo unspecified), the MIC in [13] was 1 µg/mL (≈ 2.68 µM); in [14], 2 µg/mL (≈ 5.37 µM); in [15] it was 2 µg/mL (≈ 5.37 µM); in [16] it was 2 µg/mL (≈ 5.37 µM); in [17], 2 µg/mL (≈ 5.37 µM).

Regarding `COc1ccc2[nH]c3c(O)cccc3c2c1Cl`, the MIC in assay [18], in assay [19], in assay [20] and in assay [21] was 32 µg/mL each time.

Turning to `CCOc1nc2c(c(-c3cccs3)c1C(N)=O)CCc1c-2[nH]c2ccc(Cl)cc12`, the results for the “inhibition zone (IZ)” value in [22] and in [23] were 2.1 cm and 1.1 cm, respectively.

As for `OC(CNCc1cn(-c2ccc(F)cc2)nn1)Cn1c2ccccc2c2ccccc21` (stereo unspecified), the EC50 (as a rule, the concentration at which the effect is half-maximal) in assay [24] amounted to 14.2 µg/mL (≈ 34.2 µM); in assay [25], 3.36 µg/mL (≈ 8.09 µM); in assay [26], 2.87 µg/mL (≈ 6.91 µM).

On to `N#Cc1ccc2c(c1)[nH]c1c(-c3c[nH]c4ccc(C#N)cc34)ccc(-c3c[nH]c4ccc(C#N)cc34)c12`, for which the MIC turned out to be 8 µg/mL (≈ 16.9 µM) in assay [27] and 16 µg/mL (≈ 33.9 µM) in assay [28].

On to `O=C1COc2ccccc2N1CC(O)CN1CCN(CC(O)Cn2c3ccccc3c3ccccc32)CC1` (stereo unspecified), for which the values for the EC50 in assay [24], in assay [25] and in assay [26] were 8.5 µg/mL (≈ 16.5 µM), 4.95 µg/mL (≈ 9.62 µM) and 4.71 µg/mL (≈ 9.15 µM), respectively.

As to `Clc1ccc2[nH]c3c(c2c1)CCCC3NCc1ccc(-c2ccccc2)cc1` (stereo unspecified), in [29], the MIC50 (as a rule, the lowest concentration that inhibits either 50% of growth or 50% of the strains tested, depending on the study) was found to be 6.8 µM (≈ 2.63 µg/mL).

With `COC12C(=O)N(C)C(=O)C1(OC)c1c([nH]c3cc(Cl)ccc13)-c1[nH]c3cc(Cl)ccc3c12` (stereo unspecified), the MIC in assay [30] and in assay [31] was 3.1 µg/mL (≈ 6.59 µM) throughout.

`CC(C)=CC1OC(=O)c2cc(O)c3[nH]c4ccccc4c3c21` (stereo unspecified): the MIC in [32] and in [33] was 64 µg/mL each time.
